Test systems include A549 NSCLC; CAKI-1 renal; CCRF-CEM leukemia; HCT-15 colon; HL-60(TB) leukemia; K-562 leukemia; KM12 colon; MOLT-4 leukemia; NCI-H226 lung; NCI-H23 lung; NCI-H460 lung; OVCAR-5 ovarian; U251 CNS; NCI-H522 lung.
What all share (experiment): growth of human tumour cells (NCI), 48 h

Molecules are shown by their SMILES.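 Briefly, cells in 96-well plates were exposed to five compound concentrations for 48 h, and endpoints were estimated by linear interpolation. TGI: total growth inhibition.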 Where a SMILES comes first, the peptide text is derived from it. The star is where a group is joined. Boc = CC(C)(C)OC(=O)*

Here are results for eight compounds from PubChem BioAssay (NCI).

Consider `COC1/C=C/C(C)C(C(C)C(OC)C(C)CCC(=O)C(C)C(CC(=O)O)OC)OC(=O)/C=C/C=C(\C)CC(OC)C(OC)C2=CC(=O)O[C@@H](C(C)C(OC)CC(OC)/C=C/C(C)C(O)C1)[C@H]2O` (stereo partly specified), for which the TGI in the test on A549 NSCLC is 0.437 µM; in the test with CAKI-1 renal, greater than 1.07 µM; with CCRF-CEM leukemia, greater than 1.07 µM; in the test with HCT-15 colon, 0.926 µM; with HL-60(TB) leukemia, 0.074 µM; in the test on K-562 leukemia, greater than 1.07 µM. Further, the TGI with KM12 colon was greater than 1.07 µM; in the test with MOLT-4 leukemia, greater than 1.07 µM; with NCI-H226 lung, 0.127 µM; with NCI-H23 lung, 0.722 µM; in the test with NCI-H460 lung it was greater than 1.07 µM; in the test with OVCAR-5 ovarian, greater than 1.07 µM. For the same compound, the TGI in the test with U251 CNS was greater than 1.07 µM.
For the compound `CCOC(=O)/C(=C\NC[C@@H](C)O)c1nc2ccccc2[nH]1`, the TGI in the test with A549 NSCLC was greater than 100 µM; in the test with CAKI-1 renal, greater than 100 µM; in the test on HCT-15 colon, greater than 100 µM; in the test with HL-60(TB) leukemia, 90.4 µM; with KM12 colon, greater than 100 µM; in the test on NCI-H23 lung, greater than 100 µM. Further, the TGI with NCI-H460 lung, with NCI-H522 lung and in the test with OVCAR-5 ovarian was greater than 100 µM in each case.
In the case of `CCOC(=O)C12C3CCC1C2C(=O)C3` (stereo unspecified), the TGI in the test on A549 NSCLC, in the test on CAKI-1 renal, in the test with CCRF-CEM leukemia, with HCT-15 colon, in the test with K-562 leukemia and in the test with KM12 colon was greater than 100 µM throughout. The TGI in the test with MOLT-4 leukemia, in the test with NCI-H226 lung, with NCI-H23 lung, in the test on NCI-H460 lung, in the test on NCI-H522 lung and in the test on OVCAR-5 ovarian was greater than 100 µM throughout. The same compound yielded a TGI in the test on U251 CNS greater than 100 µM.
As to `C(=C\c1ccccc1)/Cn1nc(-c2ccccc2)nc1-c1cnccn1`, the TGI in the test on A549 NSCLC, with CCRF-CEM leukemia, in the test with HCT-15 colon, with HL-60(TB) leukemia, with K-562 leukemia and in the test with MOLT-4 leukemia was greater than 100 µM each time. The TGI in the test with NCI-H23 lung, in the test with NCI-H460 lung, with NCI-H522 lung, with OVCAR-5 ovarian and in the test with U251 CNS was greater than 100 µM throughout.
Consider `CN1NC2=NCCN=C3NN(C)C(=NCCN=C1S2)S3`, for which the TGI with A549 NSCLC, in the test with CCRF-CEM leukemia, in the test with HCT-15 colon, with HL-60(TB) leukemia, with K-562 leukemia and in the test with KM12 colon was greater than 100 µM throughout. Further, the TGI with MOLT-4 leukemia, in the test on NCI-H226 lung, in the test with NCI-H23 lung, with NCI-H460 lung, with NCI-H522 lung and in the test on OVCAR-5 ovarian was greater than 100 µM each time. This compound also showed a TGI with U251 CNS greater than 100 µM.
On to `CC12CC(=O)OC(Cc3ccccc31)O2` (stereo unspecified), for which the TGI with A549 NSCLC, with CCRF-CEM leukemia, in the test with HL-60(TB) leukemia, with K-562 leukemia, with KM12 colon and in the test on MOLT-4 leukemia was greater than 100 µM each time. Besides, the TGI in the test on NCI-H226 lung, with NCI-H23 lung, in the test on NCI-H460 lung, in the test on NCI-H522 lung and in the test on U251 CNS was greater than 100 µM throughout.
Consider `COC(=O)C(Cc1c[nH]c2ccccc12)NC(=O)C(Cc1c[nH]c2ccccc12)NC(=O)C(Cc1c[nH]c2ccccc12)NC(=O)C(Cc1c[nH]c2ccccc12)NC(=O)C(Cc1c[nH]c2ccccc12)NC(=O)OC(C)(C)C` (stereo unspecified) (Boc-WWWWW-OMe; configuration not given here), for which the TGI was greater than 100 µM in the test on A549 NSCLC; greater than 100 µM in the test with CAKI-1 renal; greater than 100 µM in the test with CCRF-CEM leukemia; greater than 100 µM with HCT-15 colon; 81.6 µM in the test with HL-60(TB) leukemia; greater than 100 µM with K-562 leukemia. The TGI in the test with MOLT-4 leukemia, in the test on NCI-H226 lung, in the test with NCI-H23 lung, in the test on NCI-H460 lung, in the test on NCI-H522 lung and with OVCAR-5 ovarian was greater than 100 µM throughout. Moreover, the TGI in the test with U251 CNS is greater than 100 µM.
Consider `COC(=O)/C=C/COCC1C2CCC(=O)C21` (stereo unspecified), for which the TGI in the test on A549 NSCLC is greater than 100 µM; in the test on CAKI-1 renal, 51.5 µM; in the test with CCRF-CEM leukemia it was greater than 100 µM; in the test on HCT-15 colon, greater than 100 µM; in the test with K-562 leukemia, greater than 100 µM; with KM12 colon it was greater than 100 µM. The TGI in the test with MOLT-4 leukemia, with NCI-H226 lung, with NCI-H23 lung, in the test with NCI-H460 lung, with NCI-H522 lung and in the test on OVCAR-5 ovarian was greater than 100 µM in each case. The compound further had a TGI with U251 CNS greater than 100 µM.
